This note sets out measurements from patent US20060293388A1, “Pomolic acid, its isomers, derivatives and their uses, pharmaceutical composition, method to prepare the pharmaceutical composition and method for treating multidrug resistant tumours” (UNIVERSIDADE FEDERAL DO RIO DE JANEIRO, priority 2003, published 2006).

Each structure is given as a SMILES string.

One data set deals with K562. Nature of the data set: Growth/survival of K562 cells under vincristine and efflux pump modulators. The data set is classed as cell-based.
The next data set relates to Lucena 1. Nature of the data set: Growth/survival of Lucena 1 cells under vincristine and efflux pump modulators. The data set is classed as cell-based. The method, then: A possible reverser activity of pomolic acid was evaluated by testing its effect over Lucena 1 cell line, that over expresses P glycoprotein (Pgp).
In a further data set the test system is K562 cells. Nature of the data set: DNA fragmentation (apoptosis induction) by propidium iodide flow cytometry. The data set is classed as cell-based. The settings on record: 18 h, mean ± SD of 3 experiments. The method, then:
The effect of pomolic acid over DNA fragmentation was studied through the analysis of the cell cycle by flow cytometry. For this 90 μl of cells (2.5×10^5 cells/well) will be distributed in 96 well plates to which it will be added 10 μl of medium, DMSO or the drugs under test (10, 25, 50 and 100 μg/ml). After the defined period of time the cells will be harvested and spun down at 240 g for 5 min. The pellet will be resuspended in 300 μl of a HFS solution (HFS: 0.1% of Triton x-100, 0.1% of sodium citrate and 50 μg/ml of propidium iodide) and incubated at 4° C. for 1 h, in the absence of light. The samples will be read in a flow cytometer (Becton and Dikinson) using the FL2 channel.
The K562 cells were treated with 10, 25, 50 and 100 μg/ml of pomolic acid for 18 h, lysed by HFS treatment (that contains propidium iodide) and DNA fragmentation was measured by FACS (flow cytometry). The values represent the mean±SD of three independent experiments.

The next data set concerns leukaemic cell line K562. In words: Inhibition of cellular proliferation, 3H-thymidine incorporation, K562. It is filed as cell-based. The settings on record: 1, 10 and 100 μg/ml, 48 hours, FIG. 1, dose-dependent. The procedure:
FIG. 1 describes the inhibition of proliferation of the leukaemic cell line K562 by pomolic acid. […] The values represent the mean±standard error of three independent experiments. The inhibition of cellular proliferation was measured through the incorporation of radioactive thimidine (3H-TdR). For this, 180 μl of the cell suspensions are delivered in wells of a 96 wells culture microtiter plate, 2×10^4 cells/well, followed by incubation in a CO2 incubator, at 37° C. for 24 h. After this period, 20 μl of RPMI (control) or the drug to be tested at the concentrations of 100 μg/ml, 50 μg/ml, 25 μg/ml, 10 μg/ml and 1 μg/ml, are added to each group of four wells. Some wells, to be used as controls, receive 20 μl of DMSO in the same concentrations carried by the drugs. Eight hours before the end of the culture, the plate received a pulse of radioactive thymidine (1 μCi/well) and radioactivity was measured in a β counter. The percentage of inhibition was calculated taking as a reference cell growth in the presence of DMSO.
In general terms: Incorporation of labelled thymidine or its analogues reports DNA synthesis.

Data set [1] has as its system resistant leukaemia cell line Lucena 1. In words: Inhibition of cellular proliferation, 3H-thymidine incorporation, Lucena 1. The data set is classed as cell-based. The procedure:
The values represent the mean±standard error of three independent experiments. […] The values represent the mean±standard error of three independent experiments. The inhibition of cellular proliferation was measured through the incorporation of radioactive thimidine (3H-TdR). For this, 180 μl of the cell suspensions are delivered in wells of a 96 wells culture microtiter plate, 2×10^4 cells/well, followed by incubation in a CO2 incubator, at 37° C. for 24 h. After this period, 20 μl of RPMI (control) or the drug to be tested at the concentrations of 100 μg/ml, 50 μg/ml, 25 μg/ml, 10 μg/ml and 1 μg/ml, are added to each group of four wells. Some wells, to be used as controls, receive 20 μl of DMSO in the same concentrations carried by the drugs. Eight hours before the end of the culture, the plate received a pulse of radioactive thymidine (1 μCi/well) and radioactivity was measured in a β counter. The percentage of inhibition was calculated taking as a reference cell growth in the presence of DMSO. […] The experimental design was the same one as described in example 1.

In the next data set the test system is HL-60 cells. Nature of the data set: Cytotoxicity, MTT method, HL-60. It is filed as cell-based. The conditions noted are these: 1-100 μg/ml, 48 hours, FIG. 5. The procedure: HL-60 cells were treated with 1, 5, 10, 25, 50 and 100 μg/ml of pomolic acid for 48 hours. The values represent the mean±standard error of three independent experiments.
(§1) The evaluation of the capacity of pomolic acid, its isomers and derivatives of killing tumor cells will be performed in vitro by the MTT method. The MTT method (3-4,5-dimethylthiazol-2yl)-2,5-diphenyltetrazolium bromide), that is based on the reduction of this compound to Formazam by the enzyme NADH dehydrogenase, Mosmann 1983, allows the quantification of the number of viable cells after treatment. For this, cells from the different cell lines will be processed as described above, distributed into plates and treated with the drug desired concentrations (1, 5, 10, 25, 50 or 100 μg/ml) or DMSO. After 48 h, 20 μl of MTT (5 mg/ml) will be added to each well and the plate will be incubated for a further 4 h in an incubator at 37° C. Following centrifugation, the formazan crystals will be dissolved with DMSO (200 μl/well) and the reading of the absorbance will be made in an ELISA reader at 570 nm wavelength. The percentage of inhibition of cellular viability will be calculated using as reference cells treated with DMSO.
(In general: Formazan colour is commonly taken as a measure of viable cells.)

The test system of a further data set is CaCo-2 cells. Nature of the data set: Cytotoxicity, MTT method, CaCo-2. The conditions noted are these: 1-100 μg/ml, 48 h, FIGS. 6 and 8. It is filed as cell-based. The method, then:
Caco-2 cells were treated with 1, 5, 10, 25, 50 and 100 μg/ml of pomolic acid for 48 hours. The values represent the mean±standard error of three independent experiments.
as §1
(§2) For this 180 μl of the cell suspension (CaCo-2 or MA104) will be delivered to wells in a 96 wells microtiter plate, 2×10^4 cells/well, and the plate incubated in a CO2 incubator at 37° C. for 24 h. […]

For another data set, the system named is MA104 cells. Nature of the data set: Cytotoxicity, MTT method, MA104. The settings on record: 1-100 μg/ml, 48 h, FIGS. 7 and 8. It is filed as cell-based, monkey. The procedure: Ma104 cells were treated with 1, 5, 10, 25, 50 and 100 μg/ml of pomolic acid for 48 hours. The values represent the mean±standard error of three independent experiments.
as §1, §2

Another data set concerns A549 (lung cancer). In words: Cytotoxicity, A549. The data set is classed as cell-based.
Excerpt: as §1
(§3) Pomolic's acid activity was evaluated on cells sensitive to chemotherapeutic agents, such as leukaemic lines (K562 and HL-60), of lung cancer (A549) and throat (HEp-2), and on multidrug resistant of leukaemic origin (Lucena 1), of colon cancer (CaCo-2) and of monkey kidney (MA104). […]

In the next data set the test system is HEp-2 (throat cancer). In words: Cytotoxicity, HEp-2. It is filed as cell-based.
Excerpt: as §1, §3

For the molecule `CC[C@]1(O)C[C@H]2CN(CCc3c([nH]c4ccccc34)[C@@](C(=O)OC)(c3cc4c(cc3OC)N(C=O)[C@H]3[C@@](O)(C(=O)OC)[C@H](OC(C)=O)[C@]5(CC)C=CCN6CC[C@]43[C@@H]65)C2)C1` [VCR, vincristine], the “percentage of survival in relation to the untreated control, K562” value turned out to be 76 ± 7.8% with K562 (Table 2, 3.75 nM); 70.1 ± 11.8% in the data set with K562 (Table 2, 7.5 nM); 29.7 ± 7.7% with K562 (Table 2, 15 nM); 10 ± 2.9% in the data set on K562 (Table 2, 30 nM); 4.9 ± 3.1% in the data set with K562 (Table 2, 60 nM). The “percentage of survival, K562” value with K562 (Table 3, VCR 60 nM) turned out to be 3.1 ± 1.5%. Further, the “percentage of survival in relation to the untreated control, Lucena” value was found to be 106.6 ± 3.8% with Lucena 1 (Table 2, 3.75 nM); 98.4 ± 1.9% in the data set with Lucena 1 (Table 2, 7.5 nM); 97.4 ± 6.3% with Lucena 1 (Table 2, 15 nM); 99.5 ± 6.5% with Lucena 1 (Table 2, 30 nM); 97.8 ± 3.7% in the data set on Lucena 1 (Table 2, 60 nM). In addition, in the data set with Lucena 1 (Table 3, VCR 60 nM), the “percentage of survival, Lucena” value is given as 105.3 ± 7.3%.

As to `C[C@@H]1CC[C@]2(C(=O)O)CC[C@]3(C)C(=CC[C@@H]4[C@@]5(C)CC[C@H](O)C(C)(C)[C@@H]5CC[C@]43C)[C@@H]2[C@]1(C)O` [pomolic acid], the “Percentage of DNA fragmentation in K562 cells” value was determined as 4.31 ± 1.21% in the data set with K562 cells (10 μg/ml), 13.72 ± 0.52% in the data set with K562 cells (25 μg/ml), 29.93 ± 2.74% in the data set with K562 cells (50 μg/ml) and 74.88 ± 5.69% in the data set on K562 cells (100 μg/ml). In addition, the “inhibition of proliferation of K562” value with leukaemic cell line K562 is “inhibits”. Also, the “inhibition of proliferation of Lucena” value in [1] (1, 10 and 100 μg/ml, 48 hours, FIGS. 2 and 3, dose-dependent) is “inhibits”. Further, in data set [1] (FIG. 2, 48 hours), the “inhibition of Lucena 1 growth in the presence of vincristine” value is “inhibits Lucena's 1 growth in the presence of vincristine”. Further, in [1] (FIG. 3, 48 hours), the “killing of Lucena 1 in the absence of vincristine” value is “kills Lucena 1 in the absence of vincristine”. The Pgp substrate entry in data set [1] (concluded from activity on Pgp over-expressing Lucena 1 without vincristine) is “not a Pgp substrate”. In addition, in the data set on HL-60 cells, the “cytotoxic activity towards HL-60” value is on record as “shows a cytotoxic activity”. Besides, the “cytotoxic activity towards CaCo-2” value in the data set with CaCo-2 cells was “shows a cytotoxic activity”. In addition, in the data set on MA104 cells, the “cytotoxic activity towards MA104” value is recorded as “shows a cytotoxic activity”. Further, the “cytotoxic activity towards A549” value in the data set with A549 (lung cancer) is given as “shows a cytotoxic activity”. Also, the “cytotoxic activity towards HEp-2” value in the data set on HEp-2 (throat cancer) is “shows a cytotoxic activity”.
